Literature values, collected in patent US20160338951A1 (Gavis Pharmaceuticals, priority 2015, published 2016).

Settings: olopatadine by itself, water pH about 7.0, room temperature

soluble in water up to a concentration: about 0.18 w/v %
Compound: CN(C)CC/C=C1/c2ccccc2COc2ccc(CC(=O)O)cc21 [olopatadine, 11-[(Z)-3(Dimethylamino)propylidene]-6-11dihydrodibenz [b,e] oxepin-2-acetic acid]
